The text below walks through data of patent US8895585B2, “Nicotinamide derivative or salt thereof” (FUJIFILM Corporation, priority 2010, dated 2014).

The test system of assay [1] is THP-1 cells. Description: TNFα generation assay. Particulars: Homo sapiens, THP-1, THP-1 cells; Table 22; read-out: IC50 in TNFα generation assay. The assay is classed as cell-based, human. The gist of the method: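 THP-1 cells differentiated to macrophage-like cells with 10 ng/ml IFN-γ for 2 days, preincubated with compound 30 min at room temperature, then cultured 7 h on plates coated with human IgG (10 μg/ml). Secreted TNFα measured by ELISA or AlphaLISA.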

The target in assay [2] is T1, glutathione S-transferase (GST)-fused full-length human Syk protein (Homo sapiens, UniProt P43405).
T1 construct: (GST)-fused full-length human Syk protein; GST (glutathione S-transferase); purchased Carna Biosciences
Description: Syk enzyme assay. Particulars: Syk enzyme assay, Test Example 1; read-out: IC50 of Syk-inhibitory activity. The assay is classed as biochemical. The gist of the method: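 GST-tagged full-length human Syk (baculovirus) preincubated with compound 15 min at room temperature (pH 7.0, 10 mM MgCl2), then reacted 40 min with 0.4 μM biotinylated peptide substrate and 27 μM ATP (final). Phosphorylation read by HTRF (615/665 nm) after EDTA stop; IC50 reported.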

For the compound `C[C@H](N)[C@H](Nc1nc(Nc2ccc3c(cnn3C)c2)c(C(N)=O)cc1F)C1CC1` [Example 006-369, 6-(((1R,2S)-2-amino-1-cyclopropylpropyl)amino)-5-fluoro-2-((1-methyl-1H-indazol-5-yl)amino)nicotinamide], the results for the IC50 in assay [1] and in assay [2] were below 65 nM and below 10 nM, respectively.
In the same order, the values of `NC(=O)c1cc(F)c(N[C@@H]2CCCC[C@@H]2N)nc1Nc1cnc2c(ccn2CCN2CCOCC2)c1` [Example 004-024] are 130 to 200 nM and 50 to 100 nM.
In the same order, the values of `CCCC[C@@H](Nc1nc(Nc2ccc3ncccc3c2)c(C(N)=O)cc1F)[C@H](C)N` [Example 006-208, 6-(((2S,3R)-2-aminoheptan-3-yl)amino)-5-fluoro-2-((quinolin-6-yl)amino)nicotinamide] are 65 to 130 nM and below 10 nM.
In the same order, the values of `COCCn1ncc2cc(Nc3nc(N[C@@H]4CCCC[C@@H]4N)c(F)cc3C(N)=O)ccc21` (relative stereo) [Example 004-091, 6-(cis-2-aminocyclohexylamino)-5-fluoro-2-((1-(2-methoxyethyl)-1H-indazol-5-yl)amino)-nicotinamide] are 65 to 130 nM and below 10 nM.
With `COCCn1ccc2c(Nc3nc(N[C@@H]4CCCC[C@@H]4N)c(F)cc3C(N)=O)ccnc21` [Example 004-035], the IC50 in assay [1] is 130 to 200 nM; in assay [2] it was below 10 nM.
In the same order, the values of `Cc1nn(CC(F)F)c2ccc(Nc3nc(N[C@H](CC(C)C)[C@H](C)N)c(F)cc3C(N)=O)cc12` [Example 006-522, 6-(((2S,3R)-2-amino-5-methylhexan-3-yl)amino)-2-((1-(2,2-difluoroethyl)-3-methyl-1H-indazol-5-yl)amino)-5-fluoronicotinamide] are below 65 nM and below 10 nM.
In the same order, the values of `CCCc1nn(C)c2ccc(Nc3nc(N[C@H](CC4CC4)[C@H](C)N)c(F)cc3C(N)=O)cc12` [Example 006-464, 6-(((2R,3S)-3-amino-1-cyclopropylbutan-2-yl)amino)-5-fluoro-2-((1-methyl-3-propyl-1H-indazol-5-yl)amino)nicotinamide] are 65 to 130 nM and below 10 nM.
In the same order, the values of `COc1ccc(-c2cncc(Nc3nc(NC4CCCCC4N)c(F)cc3C(N)=O)c2)cc1OC` (stereo not drawn) [Example 002-170] are 65 to 130 nM and 10 to 50 nM.
With `CCCC[C@H](CN)Nc1nc(Nc2cncc(-c3ccccc3)c2)c(C(N)=O)cc1F` [Example 006-295, (R)-6-((1-aminohexan-2-yl)amino)-5-fluoro-2-((5-phenylpyridin-3-yl)amino)nicotinamide], the values for the IC50 in assay [1] and in assay [2] were 130 to 200 nM and 10 to 50 nM, respectively.
In the case of `CCC[C@@H](Nc1nc(Nc2cnc3cc(OCCOC)ccc3c2)c(C(N)=O)cc1F)[C@H](C)N` [Example 006-238, 6-(((2S,3R)-2-aminohexan-3-yl)amino)-5-fluoro-2-((7-(2-methoxyethoxy)quinolin-3-yl)amino)nicotinamide], the values for the IC50 in assay [1] and in assay [2] were below 65 nM and below 10 nM, respectively.
In the same order, the values of `CC[C@@H](Nc1nc(Nc2ccc3nc(OCCOC)ccc3c2)c(C(N)=O)cc1F)[C@H](C)N` [Example 006-271, 6-(((2S,3R)-2-aminopentan-3-yl)amino)-5-fluoro-2-((2-(2-methoxyethoxy)quinolin-6-yl)amino)nicotinamide] are below 65 nM and below 10 nM.
Take `CCC[C@@H](Nc1nc(Nc2ccc3nc(OCCOC)ccc3c2)c(C(N)=O)cc1F)[C@H](C)N` [Example 006-303, 6-(((2S,3R)-2-aminohexan-3-yl)amino)-5-fluoro-2-((2-(2-methoxyethoxy)quinolin-6-yl)amino)nicotinamide]: the IC50 was 130 to 200 nM in assay [1] and below 10 nM in assay [2].
In the same order, the values of `COCCOc1ncc(Nc2nc(N[C@@H]3CCCC[C@@H]3N)c(F)cc2C(N)=O)cc1-n1cccn1` [Example 006-575, 6-(((1R,2S)-2-aminocyclohexyl)amino)-2-((6-(2-methoxyethoxy)-5-(1H-pyrazol-1-yl)pyridin-3-yl)amino)-5-fluoronicotinamide] are 130 to 200 nM and 10 to 50 nM.
In the same order, the values of `COc1ncc(Nc2nc(N[C@@H]3CCCC[C@@H]3N)c(F)cc2C(N)=O)cc1-n1ccnn1` [Example 006-493, 6-(((1R,2S)-2-aminocyclohexyl)amino)-5-fluoro-2-((6-methoxy-5-(1H-1,2,3-triazol-1-yl)pyridin-3-yl)amino)nicotinamide] are 130 to 200 nM and 10 to 50 nM.
In the same order, the values of `CC[C@@H](Nc1nc(Nc2ccc3ncccc3c2)c(C(N)=O)cc1F)C(N)=O` [Example 012-031] are 65 to 130 nM and 10 to 50 nM.
Take `Cc1cc2cc(Nc3nc(N[C@@H]4CCCC[C@@H]4N)c(F)cc3C(N)=O)ccc2[nH]1` (relative stereo) [Example 004-071, 6-(cis-2-aminocyclohexylamino)-5-fluoro-2-((2-methyl-1H-indol-5-yl)amino)nicotinamide]: the IC50 is 130 to 200 nM in assay [1] and below 10 nM in assay [2].
`Cc1ncc(Nc2nc(N[C@H](CC(C)C)[C@H](C)N)c(F)cc2C(N)=O)cc1-n1nccn1` [Example 006-386, 6-(((2S,3R)-2-amino-5-methylhexan-3-yl)amino)-5-fluoro-2-((6-methyl-5-(2H-1,2,3-triazol-2-yl)pyridin-3-yl)amino)nicotinamide]: the values for the IC50 in assay [1] and in assay [2] were below 65 nM and below 10 nM, respectively.
With `NC(=O)c1cc(F)c(N[C@@H]2CCCC[C@@H]2N)nc1Nc1ccc2nc(-c3ccccc3)cn2c1` [Example 004-014], the IC50 in assay [1] is 130 to 200 nM; in assay [2], below 10 nM.
`NC(=O)c1cc(F)c(NC[C@@H](N)c2ccccn2)nc1Nc1ccc2ncccc2c1` [Example 014-017, (R)-6-((2-amino-2-(pyridin-2-yl)ethyl)amino)-5-fluoro-2-((quinolin-6-yl)amino)nicotinamide]: the IC50 in assay [1] was 130 to 200 nM; in assay [2], below 10 nM.
`CC[C@H](N)[C@@H](CC)Nc1nc(Nc2ccnc(OC)c2)c(C(N)=O)cc1F` [Example 006-381, 6-(((3R,4S)-4-aminohexan-3-yl)amino)-5-fluoro-2-((2-methoxypyridin-4-yl)amino)nicotinamide]: the IC50 in assay [1] was 65 to 130 nM; in assay [2] it was 10 to 50 nM.
In the case of `Cc1ccncc1Nc1nc(N[C@@H]2CCCC[C@@H]2N)c(F)cc1C(N)=O` [Example 004-019], the IC50 lay within 130 to 200 nM in assay [1] and 10 to 50 nM in assay [2].
In the same order, the values of `COc1cccc(-c2cncc(Nc3nc(N[C@@H](CN)CC(C)C)c(F)cc3C(N)=O)c2)c1` [Example 006-317, (R)-6-((1-amino-4-methylpentan-2-yl)amino)-5-fluoro-2-((5-(3-methoxyphenyl)pyridin-3-yl)amino)nicotinamide] are 130 to 200 nM and below 10 nM.
Regarding `COc1cc(Nc2nc(NC3CCCCC3N)c(F)cc2C(N)=O)cc(OC)c1OC` (stereo not drawn) [Example 002-007], the results for the IC50 in assay [1] and in assay [2] were 65 to 130 nM and 10 to 50 nM, respectively.
With `CN(C)CCCn1ccc2c(Nc3nc(N[C@@H]4CCCC[C@@H]4N)c(F)cc3C(N)=O)ccnc21` [Example 004-030], the IC50 is 130 to 200 nM in assay [1] and below 10 nM in assay [2].
Regarding `Cn1ccc2c(Nc3nc(N[C@@H]4CCCC[C@@H]4N)c(F)cc3C(N)=O)cncc21` [Example 004-006], the IC50 was 65 to 130 nM in assay [1] and below 10 nM in assay [2].
For `NC(=O)c1cc(F)c(NC2CCCCC2N)nc1Nc1ccc2cnn(CC(F)F)c2c1` (stereo not drawn) [Example 002-188], the IC50 is 65 to 130 nM in assay [1] and below 10 nM in assay [2].
In the same order, the values of `CCc1nn(C)c2ccc(Nc3nc(N[C@H](CC)[C@H](C)N)c(F)cc3C(N)=O)cc12` [Example 006-539, 6-(((2S,3R)-2-aminopentan-3-yl)amino)-2-((3-ethyl-1-methyl-1H-indazol-5-yl)amino)-5-fluoronicotinamide] are 130 to 200 nM and below 10 nM.
For `NC(=O)c1cc(F)c(N[C@@H]2CCCC[C@@H]2N)nc1Nc1cnc2c([N+](=O)[O-])cccc2c1` [Example 004-005], the IC50 in assay [1] is 65 to 130 nM; in assay [2] it was below 10 nM.
Take `COc1cc(Nc2nc(NC[C@H](C)N)c(F)cc2C(N)=O)ccn1` [Example 006-096, (S)-6-((2-aminopropyl)amino)-5-fluoro-2-((2-methoxypyridin-4-yl)amino)nicotinamide]: the IC50 is below 65 nM in assay [1] and 10 to 50 nM in assay [2].
In the same order, the values of `CCC[C@@H](Nc1nc(Nc2ccnc(-c3ccc(OC)cc3)c2)c(C(N)=O)cc1F)[C@H](C)N` [Example 006-335, 6-(((2S,3R)-2-aminohexan-3-yl)amino)-5-fluoro-2-((2-(4-methoxyphenyl)pyridin-4-yl)amino)nicotinamide] are 130 to 200 nM and below 10 nM.
In the same order, the values of `C[C@@H](Nc1nc(Nc2ccc3ncccc3c2)c(C(N)=O)cc1F)C(N)=O` [Example 012-036, (R)-6-((1-amino-1-oxopropan-2-yl)amino)-5-fluoro-2-((quinolin-6-yl)amino)nicotinamide] are 65 to 130 nM and 10 to 50 nM.
Regarding `COc1cc(Nc2nc(N[C@@H]3CCCC[C@@H]3N)c(F)cc2C(N)=O)cc(OC)n1` [Example 006-114, 6-(((1R,2S)-2-aminocyclohexyl)amino)-2-((2,6-dimethoxypyridin-4-yl)amino)-5-fluoronicotinamide], the IC50 is 65 to 130 nM in assay [1] and below 10 nM in assay [2].
In the same order, the values of `NC(=O)c1cc(F)c(N[C@@H]2CCCC[C@@H]2N)nc1Nc1cnc2c(N3CCOCC3)cccc2c1` [Example 004-033] are 130 to 200 nM and below 10 nM.
